In the NIST ThermoML archive (doi:10.1016/j.jct.2003.11.012):
± gives the expanded uncertainty stated by the source.

Experiments:
[1] = Molar enthalpy of transition or fusion
[2] = for vapor or sublimation pressure: Liquid; for Triple point temperature: Adiabatic calorimetry
[3] = molar heat capacity at saturation pressure

C1CCC(SC2CCCCC2)CC1 [dicyclohexyl sulfide]
Settings | Molar enthalpy of transition or fusion [kcal/mol] | Triple point temperature [K] | vapor or sublimation pressure [kPa]
[1], Crystal 1 | 1.358 ± 0.00263 | – | –
[1], Crystal 2 | 2.392 ± 0.00263 | – | –
[2], 334.98 K | – | – | 0.0195 ± 0.0005
[2], 344.99 K | – | – | 0.0387 ± 0.0005
[2], 354.98 K | – | – | 0.073 ± 0.0006
[2], 364.98 K | – | – | 0.1323 ± 0.0006
[2], 374.98 K | – | – | 0.2307 ± 0.0007
[2], 384.97 K | – | – | 0.3883 ± 0.0008
[2], 394.98 K | – | – | 0.6338 ± 0.001
[2], 404.98 K | – | – | 1.004 ± 0.0014
[2], 414.96 K | – | – | 1.546 ± 0.0018
[2], 419.97 K | – | – | 1.902 ± 0.0022
[2], 424.96 K | – | – | 2.324 ± 0.0025
[2], 429.96 K | – | – | 2.825 ± 0.0028
[2], Crystal 1 | – | 284.2 ± 0.05 | –
[2], Crystal 2 | – | 264.7 ± 0.05 | –
[2], Crystal 3 | – | 41.35 ± 0.1 | –

[3]
Settings | molar heat capacity [J/K/mol]
5 K, Crystal 3 | 0.65 ± 0.02
7.076 K, Crystal 3, Vacuum adiabatic calorimetry | 1.83 ± 0.03
8.093 K, Crystal 3, Vacuum adiabatic calorimetry | 2.68 ± 0.03
9.092 K, Crystal 3, Vacuum adiabatic calorimetry | 3.7 ± 0.04
10 K, Crystal 3 | 4.79 ± 0.03
10.12 K, Crystal 3, Vacuum adiabatic calorimetry | 4.94 ± 0.06
11.22 K, Crystal 3, Vacuum adiabatic calorimetry | 6.32 ± 0.07
12.48 K, Crystal 3, Vacuum adiabatic calorimetry | 8.05 ± 0.07
13.88 K, Crystal 3, Vacuum adiabatic calorimetry | 10.26 ± 0.091
15 K, Crystal 3 | 12.08 ± 0.06
15.44 K, Crystal 3, Vacuum adiabatic calorimetry | 12.81 ± 0.1
17.17 K, Crystal 3, Vacuum adiabatic calorimetry | 15.8 ± 0.12
19.09 K, Crystal 3, Vacuum adiabatic calorimetry | 19.16 ± 0.12
20 K, Crystal 3 | 20.77 ± 0.07
21.2 K, Crystal 3, Vacuum adiabatic calorimetry | 22.91 ± 0.13
23.53 K, Crystal 3, Vacuum adiabatic calorimetry | 27.09 ± 0.14
25 K, Crystal 3 | 29.63 ± 0.083
26.12 K, Crystal 3, Vacuum adiabatic calorimetry | 31.54 ± 0.15
29 K, Crystal 3, Vacuum adiabatic calorimetry | 36.28 ± 0.14
30 K, Crystal 3 | 37.98 ± 0.07
32.2 K, Crystal 3, Vacuum adiabatic calorimetry | 41.46 ± 0.12
33.51 K, Crystal 3, Vacuum adiabatic calorimetry | 43.05 ± 0.13
35 K, Crystal 3 | 45.26 ± 0.07
35.74 K, Crystal 3, Vacuum adiabatic calorimetry | 46.49 ± 0.13
36 K, Crystal 3 | 46.79 ± 0.07
37 K, Crystal 3 | 48.49 ± 0.07
37.54 K, Crystal 3, Vacuum adiabatic calorimetry | 49.5 ± 0.14
38 K, Crystal 3 | 50.1 ± 0.083
39 K, Crystal 3 | 53.43 ± 0.12
39.08 K, Crystal 3, Vacuum adiabatic calorimetry | 53.4 ± 0.16
40 K, Crystal 3 | 59.33 ± 0.24
40.2 K, Crystal 3 | 61.57 ± 0.3
40.4 K, Crystal 3 | 65.04 ± 0.46
40.6 K, Crystal 3 | 70.56 ± 0.71
40.8 K, Crystal 3 | 79.24 ± 1.1
41 K, Crystal 3 | 92.56 ± 1.5
41.1 K, Crystal 3 | 101.56 ± 2
41.2 K, Crystal 3 | 112.49 ± 2.4
41.3 K, Crystal 3 | 125.67 ± 2.7
41.35 K, Crystal 2 | 132.62 ± 1.6
41.35 K, Crystal 3 | 132.62 ± 2.7
41.4 K, Crystal 2 | 124.85 ± 1.4
41.5 K, Crystal 2 | 113.3 ± 1.1
41.6 K, Crystal 2 | 103.72 ± 1.2
41.7 K, Crystal 2 | 95.82 ± 1.1
41.8 K, Crystal 2 | 89.37 ± 1.1
41.9 K, Crystal 2 | 84.14 ± 1
42 K, Crystal 2 | 79.94 ± 0.96
42.1 K, Crystal 2 | 76.58 ± 0.84
42.2 K, Crystal 2 | 73.92 ± 0.68
42.3 K, Crystal 2 | 71.85 ± 0.55
42.4 K, Crystal 2 | 70.24 ± 0.47
42.5 K, Crystal 2 | 68.99 ± 0.42
42.6 K, Crystal 2 | 68.04 ± 0.36
42.7 K, Crystal 2 | 67.3 ± 0.17
42.8 K, Crystal 2 | 66.72 ± 0.16
42.9 K, Crystal 2 | 66.27 ± 0.14
43 K, Crystal 2 | 65.89 ± 0.13
44 K, Crystal 2 | 63.21 ± 0.091
44.5 K, Crystal 2, Vacuum adiabatic calorimetry | 62.94 ± 0.17
45 K, Crystal 2 | 62.78 ± 0.083
45.83 K, Crystal 2, Vacuum adiabatic calorimetry | 62.98 ± 0.17
46 K, Crystal 2 | 63.03 ± 0.083
48 K, Crystal 2 | 64 ± 0.083
48.81 K, Crystal 2, Vacuum adiabatic calorimetry | 64.58 ± 0.17
50 K, Crystal 2 | 65.53 ± 0.091
53.62 K, Crystal 2, Vacuum adiabatic calorimetry | 68.84 ± 0.18
54.45 K, Crystal 2, Vacuum adiabatic calorimetry | 69.65 ± 0.18
55 K, Crystal 2 | 70.15 ± 0.091
58.57 K, Crystal 2, Vacuum adiabatic calorimetry | 73.26 ± 0.19
60 K, Crystal 2 | 74.51 ± 0.1
64.06 K, Crystal 2, Vacuum adiabatic calorimetry | 78.07 ± 0.2
70 K, Crystal 2 | 83.42 ± 0.11
70.24 K, Crystal 2, Vacuum adiabatic calorimetry | 83.65 ± 0.21
77.05 K, Crystal 2, Vacuum adiabatic calorimetry | 89.46 ± 0.22
80 K, Crystal 2 | 91.91 ± 0.12
82.72 K, Crystal 2, Vacuum adiabatic calorimetry | 94.2 ± 0.23
84.66 K, Crystal 2, Vacuum adiabatic calorimetry | 95.88 ± 0.23
89.87 K, Crystal 2, Vacuum adiabatic calorimetry | 100.11 ± 0.24
90 K, Crystal 2 | 100.24 ± 0.15
93.06 K, Crystal 2, Vacuum adiabatic calorimetry | 102.76 ± 0.3
98.25 K, Crystal 2, Vacuum adiabatic calorimetry | 106.88 ± 0.31
100 K, Crystal 2 | 108.32 ± 0.16
101.97 K, Crystal 2, Vacuum adiabatic calorimetry | 109.92 ± 0.31
107.36 K, Crystal 2, Vacuum adiabatic calorimetry | 114.09 ± 0.32
117.01 K, Crystal 2, Vacuum adiabatic calorimetry | 121.51 ± 0.32
120 K, Crystal 2 | 123.79 ± 0.17
126.84 K, Crystal 2, Vacuum adiabatic calorimetry | 128.96 ± 0.33
136.8 K, Crystal 2, Vacuum adiabatic calorimetry | 136.33 ± 0.33
140 K, Crystal 2 | 138.69 ± 0.17
146.83 K, Crystal 2, Vacuum adiabatic calorimetry | 143.7 ± 0.34
156.79 K, Crystal 2, Vacuum adiabatic calorimetry | 151.02 ± 0.35
160 K, Crystal 2 | 153.38 ± 0.17
167.83 K, Crystal 2, Vacuum adiabatic calorimetry | 159.16 ± 0.36
179.9 K, Crystal 2, Vacuum adiabatic calorimetry | 168.19 ± 0.37
180 K, Crystal 2 | 168.28 ± 0.18
192 K, Crystal 2, Vacuum adiabatic calorimetry | 177.65 ± 0.37
200 K, Crystal 2 | 184.16 ± 0.19
204.1 K, Crystal 2, Vacuum adiabatic calorimetry | 187.6 ± 0.39
212.64 K, Crystal 2, Vacuum adiabatic calorimetry | 194.77 ± 0.4
216.18 K, Crystal 2, Vacuum adiabatic calorimetry | 197.93 ± 0.4
220 K, Crystal 2 | 201.6 ± 0.2
223.24 K, Crystal 2, Vacuum adiabatic calorimetry | 204.46 ± 0.41
227.23 K, Crystal 2, Vacuum adiabatic calorimetry | 208.11 ± 0.41
229.69 K, Crystal 2, Vacuum adiabatic calorimetry | 210.53 ± 0.41
233.56 K, Crystal 2, Vacuum adiabatic calorimetry | 214.23 ± 0.42
239.46 K, Crystal 2, Vacuum adiabatic calorimetry | 220.49 ± 0.42
240 K, Crystal 2 | 221.21 ± 0.21
243.62 K, Crystal 2, Vacuum adiabatic calorimetry | 224.96 ± 0.42
245.76 K, Crystal 2, Vacuum adiabatic calorimetry | 227.13 ± 0.42
249.49 K, Crystal 2, Vacuum adiabatic calorimetry | 232.29 ± 0.43
250 K, Crystal 2 | 231.72 ± 0.22
252.11 K, Crystal 2, Vacuum adiabatic calorimetry | 235.33 ± 0.44
255.1 K, Crystal 2, Vacuum adiabatic calorimetry | 241.32 ± 0.45
255.37 K, Crystal 2, Vacuum adiabatic calorimetry | 242.85 ± 0.45
256.11 K, Crystal 2, Vacuum adiabatic calorimetry | 244.36 ± 0.45
258.04 K, Crystal 2, Vacuum adiabatic calorimetry | 251.78 ± 0.47
258.75 K, Crystal 2, Vacuum adiabatic calorimetry | 257.57 ± 0.48
260 K, Crystal 2 | 264.46 ± 0.26
264.7 K, Crystal 1 | 315.22 ± 0.26
264.7 K, Crystal 2 | 316.1 ± 0.34
267.11 K, Crystal 1, Vacuum adiabatic calorimetry | 316.81 ± 0.52
270 K, Crystal 1 | 318.74 ± 0.26
270.5 K, Crystal 1, Vacuum adiabatic calorimetry | 319.58 ± 0.52
270.99 K, Crystal 1, Vacuum adiabatic calorimetry | 319.82 ± 0.52
272.57 K, Crystal 1, Vacuum adiabatic calorimetry | 320.97 ± 0.52
274.72 K, Crystal 1, Vacuum adiabatic calorimetry | 322.6 ± 0.52
275.18 K, Crystal 1, Vacuum adiabatic calorimetry | 322.61 ± 0.52
276.68 K, Crystal 1, Vacuum adiabatic calorimetry | 324.34 ± 0.52
277.72 K, Crystal 1, Vacuum adiabatic calorimetry | 325.42 ± 0.52
278.97 K, Crystal 1, Vacuum adiabatic calorimetry | 327.22 ± 0.53
280 K, Crystal 1 | 325.48 ± 0.27
284.2 K, Crystal 1 | 328.37 ± 0.27
284.2 K, Liquid | 317.32 ± 0.26
298.15 K, Liquid | 326.14 ± 0.27
300 K, Liquid | 327.33 ± 0.27
320 K, Liquid | 340.79 ± 0.27
340 K, Liquid | 354.76 ± 0.27
360 K, Liquid | 369.3 ± 0.28
380 K, Liquid | 384.16 ± 0.29
400 K, Liquid | 399.24 ± 0.3
420 K, Liquid | 414.4 ± 0.31
440 K, Liquid | 429.57 ± 0.32

[3], Liquid, Vacuum adiabatic calorimetry
Settings | molar heat capacity [J/K/mol]
287.6 K | 319.48 ± 0.52
289.37 K | 320.58 ± 0.52
290.6 K | 321.35 ± 0.52
296.18 K | 324.86 ± 0.52
296.81 K | 325.28 ± 0.52
307.92 K | 332.58 ± 0.53
321.65 K | 341.93 ± 0.54
336.79 K | 352.46 ± 0.55
352.3 K | 363.66 ± 0.56
367.76 K | 375.02 ± 0.57
383 K | 386.42 ± 0.59
398.09 K | 397.79 ± 0.6
413.1 K | 409.16 ± 0.61
428.06 K | 420.5 ± 0.62
439.99 K | 429.5 ± 0.63
